# Test results reported in the supplement of paper PMC10307832.
# Tests used:
# Assay in all cases: relative viability (nuclei count vs DMSO), 5 days (fraction); higher = more cells survive
# AZ628 + Crizotinib = compound: CC1=C(C=C(C=C1)NC(=O)C2=CC(=CC=C2)C(C)(C)C#N)NC3=CC4=C(C=C3)N=CN(C4=O)C [AZ628] + C[C@@H](Oc1cc(-c2cnn(C3CCNCC3)c2)cnc1N)c1c(Cl)ccc(F)c1Cl [Crizotinib] (partner 1 µM)
# Summary of the method: (§1)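 After 5 days of treatment, lung cancer cells in 1536-well plates were fixed and stained in a single step (final 0.05% Triton X-100, 1% formaldehyde, 1 ug/ml Hoechst) and their nuclei counted on 4× images. Treatment had been applied by pin tool the day after seeding as one drug alone or as a fixed anchor-drug dose with five library-drug doses (not always all listed) in √10 steps. Relative viability is the nuclei count of treated wells divided by that of vehicle wells, and values are medians of duplicate plates.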
# Darinaparsin + Lapatinib = compound: C[As](C)SC[C@H](NC(=O)CC[C@H](N)C(=O)O)C(=O)NCC(=O)O [Darinaparsin] + CS(=O)(=O)CCNCc1ccc(-c2ccc3ncnc(Nc4ccc(OCc5cccc(F)c5)c(Cl)c4)c3c2)o1 [Lapatinib] (partner 2 µM)
# Summary of the method: as §1
# AZ628 + Luminespib = compound: CC1=C(C=C(C=C1)NC(=O)C2=CC(=CC=C2)C(C)(C)C#N)NC3=CC4=C(C=C3)N=CN(C4=O)C [AZ628] + CCNC(=O)c1noc(-c2cc(C(C)C)c(O)cc2O)c1-c1ccc(CN2CCOCC2)cc1 [Luminespib] (partner 0.01 µM)
# Summary of the method: as §1
# QS11 + Phenformin = compound: C1CC2=C(C1)C=C(C=C2)OC3=NC(=C4C(=N3)N(C=N4)CC5=CC=C(C=C5)C6=CC=CC=C6)N[C@@H](CC7=CC=CC=C7)CO [QS11] + N=C(N)NC(=N)NCCc1ccccc1 [Phenformin] (partner 250 µM)
# Summary of the method: as §1
Cell Line,relative viability (AZ628 + Crizotinib; first compound 0.08 µM),relative viability (AZ628 + Crizotinib; first compound 0.253 µM),relative viability (AZ628 + Crizotinib; first compound 0.8 µM),relative viability (AZ628 + Crizotinib; first compound 2.53 µM),relative viability (AZ628 + Crizotinib; first compound 8 µM),relative viability (Darinaparsin + Lapatinib; first compound 0.08 µM),relative viability (Darinaparsin + Lapatinib; first compound 0.8 µM),relative viability (Darinaparsin + Lapatinib; first compound 2.53 µM),relative viability (Darinaparsin + Lapatinib; first compound 8 µM),relative viability (AZ628 + Luminespib; first compound 0.08 µM),relative viability (AZ628 + Luminespib; first compound 0.253 µM),relative viability (AZ628 + Luminespib; first compound 0.8 µM),relative viability (AZ628 + Luminespib; first compound 2.53 µM),relative viability (AZ628 + Luminespib; first compound 8 µM),relative viability (QS11 + Phenformin; first compound 0.08 µM),relative viability (QS11 + Phenformin; first compound 0.253 µM),relative viability (QS11 + Phenformin; first compound 2.53 µM),relative viability (QS11 + Phenformin; first compound 8 µM),relative viability (QS11 + Phenformin; first compound 0.8 µM)
EKVX,1.16,0.913,1,0.975,0.751,0.188,0.165,0.234,0.216,0.892,0.857,0.946,0.954,0.864,0.228,0.224,0.228,0.255,
NCI-H650,0.771,0.73,0.553,0.68,0.599,0.87,0.703,0.897,0.886,0.935,0.816,0.909,0.843,0.63,0.428,0.486,0.392,0.399,0.475
NCI-H2087,0.926,1.04,1.03,0.926,0.362,1.29,1.02,0.951,0.997,0.132,0.155,0.159,0.193,0.152,0.479,0.46,0.521,0.657,
NCI-H1755,0.809,0.818,0.786,0.811,0.769,1.1,0.981,1.01,1.46,0.326,0.446,0.443,0.421,0.278,0.594,0.649,0.533,0.51,0.502
COR-L 105,1.07,0.728,0.744,0.757,0.438,0.388,0.388,,0.349,0.828,0.591,0.761,0.86,0.635,0.511,0.407,0.501,0.475,0.475
NCI-H838,0.84,0.842,0.719,0.747,0.655,1.23,0.835,0.831,1.32,0.305,0.318,0.336,0.386,0.246,0.629,0.468,0.517,0.531,0.519
NCI-H1993,0.933,0.943,0.873,0.77,0.729,0.854,0.736,0.722,0.534,0.991,0.683,0.702,0.753,0.613,0.522,0.583,0.615,0.52,0.528
NCI-H1650,1.13,0.965,0.998,0.984,0.841,1,0.764,0.779,0.938,0.206,0.18,0.201,0.203,0.206,0.374,0.472,0.474,0.391,0.376
NCI-H1563,0.892,0.825,0.872,0.833,0.938,1.01,1.02,0.914,1.14,0.531,0.524,0.519,0.56,0.515,0.661,0.682,0.637,0.624,0.723
HARA,0.904,1.05,0.951,0.82,0.476,0.77,0.692,0.649,0.755,0.463,0.726,0.548,0.779,0.39,0.368,0.448,0.479,0.63,
PC-3 [JPC-3],0.941,1.04,1,1.06,0.922,0.458,0.364,0.411,0.492,0.628,0.67,0.866,0.675,0.71,0.446,0.476,0.489,0.431,0.461
ABC-1,1.37,1.25,0.844,1.02,0.808,1.11,1.18,1.16,1.47,0.717,0.699,0.929,0.838,0.536,0.238,0.259,0.292,0.268,0.281
NCI-H2126,1.04,0.98,1.06,1.07,1.03,0.767,0.712,0.622,0.861,1,0.902,0.968,0.933,0.97,0.542,0.505,0.561,0.541,0.552
BEN,0.98,0.881,0.698,0.966,0.825,0.844,0.77,0.671,0.743,0.51,0.251,0.485,0.938,0.221,0.262,0.3,0.258,0.251,0.29
NCI-H596,0.903,1.18,1.08,1.04,1.16,1.1,1.02,1.01,1.06,0.931,1.11,1.02,0.984,0.829,0.736,0.81,0.832,0.874,0.804
NCI-H1944,1.2,1.09,0.97,0.973,0.878,0.834,0.796,0.664,0.947,0.651,0.66,0.553,0.546,0.575,0.202,0.204,0.196,0.145,
HCC-827,0.883,0.946,0.928,0.921,0.865,0.198,0.184,0.153,0.176,0.698,0.5,0.588,0.701,0.623,0.447,0.416,0.478,0.547,0.366
